Eight compounds from article PMC8535490, “Biotransformation of Flavonoids Improves Antimicrobial and Anti-Breast Cancer Activities In Vitro” (Foods, 2021) can be followed below.

Data set [1] concerns MCF-7 human breast cancer cells. Kind of data set: Antiproliferative activity, methylene blue assay. To be noted: MCF-7 cells; for IC50: 72 h, mean ± SD, n = 3; for Increase in antiproliferation potency compared to unmethylated substrate: ratio of IC50 values. It is filed as cell-based. On the procedure: (§1) Analysis of the antiproliferative activity of the test compounds was performed according to Zhu et al., with some modifications. MCF-7 human breast cancer cells were provided by the Cell Resource Center of the Chinese Academy of Sciences (Shanghai, China). Cell proliferation and cytotoxicity of anticancer activity were assessed using the methylene blue assay. For cell proliferation and cytotoxicity, MCF-7 cells were culture in a 96-well plate at 1.5 × 10^5 cells/well and at 3 × 10^5 cells/well, respectively. Various concentrations (75–400 µM) of the test samples were added to a growth medium containing MCF-7 cells followed by cultivation for […]. Following incubation for 72 h, cell proliferation was measured with an absorbance of 570 nm using a microplate reader (Bio-Rad, Hercules, MA, USA), while cell cytotoxicity measurement was carried out 24 h after incubation.

Data set [2] has the same test system. The experiment in a line: Cytotoxicity, methylene blue assay. Format: cell-based. To be noted: at a concentration corresponding to the IC50 (hesperetin 150 μM), 24 h. On the procedure:
as §1

A further data set concerns C. albicans SC5314. The experiment in a line: Antimicrobial activity assay (broth culture in 96-well plate, TTC staining, MIC/MBC). It is filed as cell-based, Candida albicans. To be noted: for MBC / MIC: tested at 15–400 µM. On the procedure:
(§2) Antimicrobial biological activities of the tested compounds were evaluated as Zhong et al., with some modifications. Gram-positive and -negative bacteria and fungi (S. aureus ATCC6538, E. coli ATCC25922, and C. albicans SC5314) were selected for evaluation in the present study. S. aureus ATCC6538 and E. coli ATCC25922 were cultured with Luria-Bertani medium, while for C. albicans SC5314, potato dextrose broth medium was used for 24 h at 37 °C (bacterial suspension in 1 × 10^6 CFU/mL). […] Each strain was, respectively, transferred into a 96-well plate at 100 µL/well (90 µL bacterial suspension and 10 µL sample solution) after adding different concentrations of samples, followed by incubation for 12–16 h. The optical density at 650 nm (OD650) of C. albicans SC5314 was measured after TTC staining, while S. aureus ATCC6538 and E. coli ATCC25922 were stained for CCK8 before measurement.

The subject of the next data set is S. aureus ATCC6538. Kind of data set: Antimicrobial activity assay (broth culture in 96-well plate, CCK8 staining, MIC/MBC). Format: cell-based, Staphylococcus aureus. To be noted: for Growth inhibition: S. aureus ATCC 6538; for MBC / MIC: S. aureus ATCC6538, tested at 15–400 µM. On the procedure:
as §2

The test system of another data set is E. coli ATCC25922. Described as above. It is filed as cell-based, Escherichia coli. Conditions: for Growth inhibition / MBC / MIC: E. coli ATCC25922; for MBC / MIC: Escherichia coli, tested at 15–400 µM. The method, then:
as §2

The mark [3] stands for this setting: Candida albicans, C. albicans SC5314.
Where [4] appears, read: Candida albicans, C. albicans SC5314, read-out: MBC.

Converted amounts (≈) assume the structure as drawn. Like-named read-outs stand apart in the source and are kept apart here.

With 7-methoxy-naringenin [Compound 2a], in data set [1], the IC50 came to 93.6 ± 1.06 µM and the “Increase in antiproliferation potency compared to unmethylated substrate” value (“Increase in antiproliferation potency” for short) is reported as 1.34 fold. The “Cytotoxicity on MCF-7 cells” value in data set [2] is listed as “highest”. In addition, the “Cytotoxicity on MCF-7 cells” value in data set [2] (listed as 7-methoxynaringenin) was “Slight cytotoxicity”. For the same compound, the “Increase of highest antimicrobial activity compared to naringenin” value in the data set with C. albicans SC5314 (C. albicans SC5314, highest activity) came to 182.12%. In the data set with C. albicans SC5314 (C. albicans SC5314), the MBC is >400 >400 μM and the MIC was 75 µM. Also, the Growth inhibition result in the data set with S. aureus ATCC6538 is given as “failed to inhibit the growth”. Further, the Growth inhibition entry in the data set with E. coli ATCC25922 is “failed to inhibit the growth”.
Take `O=C1C[C@@H](c2ccc(O)cc2)Oc2cc(O)ccc21` [Compound 1, liquiritigenin, reference compound]: the IC50 in data set [1] (Homo sapiens, MCF7) came to 101 ± 1.83 µM. In data set [2], the “Cytotoxicity on MCF-7 cells” value is recorded as “Slight cytotoxicity”. Further, the MIC amounted to 25 µM (≈ 6.41 µg/mL) against C. albicans SC5314 (setting [3]), 75 µM (≈ 19.2 µg/mL) in the data set on S. aureus ATCC6538 (Staphylococcus aureus) and 25 µM (≈ 6.41 µg/mL) in the data set with E. coli ATCC25922. Further, the MBC with C. albicans SC5314 (setting [4]), with S. aureus ATCC6538 (Staphylococcus aureus) and in the data set on E. coli ATCC25922 was over 400 µM each time.
As for `COc1ccc2c(c1)O[C@H](c1ccc(O)cc1)CC2=O` [Compound 1a, 7-methoxy-liquiritigenin], inhibition in data set [1] (Homo sapiens, MCF7) was half-maximal at 11.2 ± 0.6 µM (IC50). Moreover, in data set [1], the “Increase in antiproliferation potency” value was found to be 8.99 fold. Further, in data set [2], the “Cytotoxicity on MCF-7 cells” value was “Slight cytotoxicity”. Moreover, the “Increase (MIC) compared to the unmethylated substrate” value in the data set on C. albicans SC5314 (C. albicans SC5314) is on record as 3 fold. Also, the “Increase of antimicrobial activity compared to liquiritigenin” value is recorded as 765.64% with C. albicans SC5314 (C. albicans SC5314, 200 μM); 148.77% with S. aureus ATCC6538 (S. aureus ATCC6538, 250 μM); 54.41% in the data set with E. coli ATCC25922 (E. coli ATCC25922, 400 μM). In addition, the “Increase of inhibitory effect compared to unmethylated counterpart” value with C. albicans SC5314 (C. albicans SC5314, 200 μM) stood at 7.65 fold; in the data set on S. aureus ATCC6538 (S. aureus ATCC6538, 250 μM), 1.49 fold; in the data set with E. coli ATCC25922 (E. coli ATCC25922, 400 μM), 0.54 fold. For the same compound, the MIC against C. albicans SC5314 (C. albicans SC5314) stood at 25 µM (≈ 6.76 µg/mL); against C. albicans SC5314 (setting [3]), 25 µM (≈ 6.76 µg/mL); with S. aureus ATCC6538, 75 µM (≈ 20.3 µg/mL); against S. aureus ATCC6538 (Staphylococcus aureus) it was 75 µM (≈ 20.3 µg/mL); in the data set on E. coli ATCC25922, 15 µM (≈ 4.05 µg/mL). Also, the MBC in the data set with C. albicans SC5314 (setting [4]), in the data set with S. aureus ATCC6538 (Staphylococcus aureus) and in the data set with E. coli ATCC25922 was over 400 µM throughout.
`O=C1C[C@@H](c2ccc(O)cc2)Oc2cc(O)cc(O)c21` [Compound 2, naringenin, reference compound] yielded an IC50 in data set [1] (Homo sapiens, MCF7) of 126 ± 2.76 µM. The “Cytotoxicity on MCF-7 cells” value in data set [2] was “Slight cytotoxicity”. Moreover, the MIC in the data set on C. albicans SC5314 (setting [3]) worked out at 75 µM (≈ 20.4 µg/mL). Besides, in the data set on C. albicans SC5314 (setting [4]), the MBC was over 400 µM. Moreover, the Growth inhibition entry in the data set with S. aureus ATCC6538 and in the data set with E. coli ATCC25922 was “failed to inhibit the growth” each time.
In data set [1] (Homo sapiens, MCF7), `COc1ccc([C@@H]2CC(=O)c3c(O)cc(O)cc3O2)cc1O` [Compound 3, hesperetin, reference compound] gave an IC50 of over 150 µM. In addition, the “Cytotoxicity on MCF-7 cells” value in data set [2] is recorded as “Slight cytotoxicity”. Besides, it took 75 µM (≈ 22.7 µg/mL) to inhibit growth against C. albicans SC5314 (setting [3]) (MIC). In the data set on C. albicans SC5314 (setting [4]), the MBC was over 400 µM. Also, the Growth inhibition result in the data set with S. aureus ATCC6538 and in the data set on E. coli ATCC25922 was “failed to inhibit the growth” throughout.
In the case of `COc1ccc([C@@H]2CC(=O)c3c(O)cc(O)cc3O2)cc1OC` [Compound 3a, 3’-methoxy-hesperetin], in data set [1] (Homo sapiens, MCF7), the IC50 turned out to be 10.5 ± 0.45 µM. The “Increase in antiproliferation potency” value in data set [1] is “more than 14.35 fold”. Also, the “Cytotoxicity on MCF-7 cells” value in data set [2] was “Slight cytotoxicity”. This compound displayed an MIC in the data set with C. albicans SC5314 (setting [3]) of 50 µM (≈ 15.8 µg/mL). Also, the MBC in the data set on C. albicans SC5314 (setting [4]) was over 400 µM. Besides, the Growth inhibition entry in the data set with S. aureus ATCC6538 and with E. coli ATCC25922 was “failed to inhibit the growth” throughout.
For `COc1cc(O)c2c(c1)O[C@H](c1ccc(OC)c(O)c1)CC2=O` [Compound 3b, 7-methoxy-hesperetin], inhibition in data set [1] (Homo sapiens, MCF7) was half-maximal at 30.7 ± 0.72 µM (IC50). Besides, the “Cytotoxicity on MCF-7 cells” value is “lowest” in data set [2] and “No cytotoxicity” in data set [2] (listed as 7-methoxyhesperetin). In the data set with C. albicans SC5314 (setting [3]), the lowest concentration to inhibit growth (MIC) was 25 µM (≈ 7.91 µg/mL). Further, in the data set on C. albicans SC5314 (setting [4]), the MBC was over 400 µM. The Growth inhibition result in the data set with S. aureus ATCC6538 and with E. coli ATCC25922 was “failed to inhibit the growth” each time.
`COc1cc(O)c2c(c1)O[C@H](c1ccc(OC)c(OC)c1)CC2=O` [Compound 3c, 7,3’-dimethoxy-hesperetin] displayed an IC50 in data set [1] (Homo sapiens, MCF7) of 31 ± 1.44 µM. In data set [2], the “Cytotoxicity on MCF-7 cells” value was “Slight cytotoxicity”. For the same compound, the MIC in the data set on C. albicans SC5314 (setting [3]) is 75 µM (≈ 24.8 µg/mL). Besides, in the data set on C. albicans SC5314 (setting [4]), the MBC is over 400 µM. In addition, the Growth inhibition result with S. aureus ATCC6538 and in the data set with E. coli ATCC25922 was “failed to inhibit the growth” in each case.
